4 compounds from PubChem BioAssay AID2060890 (Molecular Pharmacology Branch, DTP, NCI, 2025) can be followed below.

The test system of this test is LG0703-F948-PDC complex spheroid viability. The test can be described thus: Anticancer human tumor LG0703-F948-PDC patient-derived lung adenocarcinoma cell line growth inhibition [RAS]. The settings on record: for viability, T/C: stronger effect = lower value. Put shortly: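 Tumour cells grown as complex spheroids with HUVEC endothelial cells and mesenchymal stem cells, treated with RAS pathway inhibitor combinations. Each agent spans half-log steps from near clinical Cmax, or 10 microM where Cmax is unknown.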

Where [1] appears, read: curve of first compound, second compound 0.000949 µM.
Setting [2] is: curve of first compound, second compound 0.003 µM.
Setting [3] is: curve of first compound, second compound 0.00949 µM.
The mark [4] stands for this setting: curve of first compound, second compound 0.03 µM.
The mark [5] stands for this setting: curve of first compound, second compound 0.0949 µM.
Where [6] appears, read: curve of first compound, second compound 0.3 µM.
The mark [7] stands for this setting: second compound 0.000949 µM, first compound 0.0316 µM.
The mark [8] stands for this setting: second compound 0.000949 µM, first compound 0.1 µM.
[9] abbreviates: second compound 0.000949 µM, first compound 0.316 µM.
Setting [10] is: second compound 0.000949 µM, first compound 1 µM.
Setting [11] is: second compound 0.003 µM, first compound 0.0316 µM.
The mark [12] stands for this setting: second compound 0.003 µM, first compound 0.1 µM.
The mark [13] stands for this setting: second compound 0.003 µM, first compound 0.316 µM.
Where [14] appears, read: second compound 0.003 µM, first compound 1 µM.
[15] abbreviates: second compound 0.00949 µM, first compound 0.0316 µM.
[16] abbreviates: second compound 0.00949 µM, first compound 0.1 µM.
Where [17] appears, read: second compound 0.00949 µM, first compound 0.316 µM.
The mark [18] stands for this setting: second compound 0.00949 µM, first compound 1 µM.
Setting [19] is: second compound 0.03 µM, first compound 0.0316 µM.
[20] abbreviates: second compound 0.03 µM, first compound 0.1 µM.
[21] abbreviates: second compound 0.03 µM, first compound 0.316 µM.
The mark [22] stands for this setting: second compound 0.03 µM, first compound 1 µM.
The mark [23] stands for this setting: second compound 0.0949 µM, first compound 0.0316 µM.
[24] abbreviates: second compound 0.0949 µM, first compound 0.1 µM.
Where [25] appears, read: second compound 0.0949 µM, first compound 0.316 µM.
[26] abbreviates: second compound 0.0949 µM, first compound 1 µM.
[27] abbreviates: second compound 0.3 µM, first compound 0.0316 µM.
Setting [28] is: second compound 0.3 µM, first compound 0.1 µM.
Where [29] appears, read: second compound 0.3 µM, first compound 0.316 µM.
Where [30] appears, read: second compound 0.3 µM, first compound 1 µM.
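Also: spheroids exposed to agents for 7 days.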
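For viability, T/C in this document: 100% = DMSO vehicle wells.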

Usually IC50 stands for the concentration at which inhibition is half-maximal. As a reminder, the viability, T/C is the result in the treated group divided by that in the control group, in per cent. As to `CC(C)NCC(C(=O)N1CCN(c2ncnc3c2C(C)CC3O)CC1)c1ccc(Cl)cc1` (stereo unspecified) + CCn1c(-c2cccnc2C(C)OC)c2c3cc(ccc31)N1CCOC(CC(NC(=O)C(C(C)C)N(C)C(=O)C3(F)CCN(C(=O)C#CC(C)(C)N(C)C)CC3)C(=O)N3CCCC(N3)C(=O)OCC(C)(C)C2)C1, the IC50 is 1800 nM under setting [1]; 2750 nM under setting [2]; 858 nM under setting [3]; 1420 nM under setting [4]; 511 nM under setting [5]; less than 31.6 nM under setting [6]. Besides, the viability, T/C by setting is: under setting [7], 103%; under setting [8], 86%; under setting [9], 73.6%; under setting [10], 51.9%; (second compound 0.000949 µM, first compound 3.16 µM) 47.4%; (second compound 0.000949 µM, first compound 10 µM) 35.6%. Moreover, the viability, T/C reads like this: under setting [11], 104%; under setting [12], 79.8%; under setting [13], 77.9%; under setting [14], 56.3%; (second compound 0.003 µM, first compound 3.16 µM) 50.8%; (second compound 0.003 µM, first compound 10 µM) 38.4%. The viability, T/C reads like this: under setting [15], 100%; under setting [16], 98%; under setting [17], 65.5%; under setting [18], 49%; (second compound 0.00949 µM, first compound 3.16 µM) 52.5%; (second compound 0.00949 µM, first compound 10 µM) 39.3%. The viability, T/C reads like this: under setting [19], 99.3%; under setting [20], 86.4%; under setting [21], 67.9%; under setting [22], 53.3%; (second compound 0.03 µM, first compound 3.16 µM) 43.1%; (second compound 0.03 µM, first compound 10 µM) 35.1%. The viability, T/C under setting [23] is 74.8%; the viability, T/C under setting [24] was 66%; the viability, T/C under setting [25] was 51.3%; the viability, T/C under setting [26] is 42.4%; the viability, T/C (second compound 0.0949 µM, first compound 3.16 µM) was 42.5%; the viability, T/C (second compound 0.0949 µM, first compound 10 µM) is 28.9%. The viability, T/C was 46.8% under setting [27]; 38.6% under setting [28]; 33.6% under setting [29]; 23.8% under setting [30]; 27.4% (second compound 0.3 µM, first compound 3.16 µM); 15.5% (second compound 0.3 µM, first compound 10 µM).

As to `Nc1ccn(C2OC(CO)C(O)C2(F)F)c(=O)n1` (stereo unspecified) + CCn1c(-c2cccnc2C(C)OC)c2c3cc(ccc31)N1CCOC(CC(NC(=O)C(C(C)C)N(C)C(=O)C3(F)CCN(C(=O)C#CC(C)(C)N(C)C)CC3)C(=O)N3CCCC(N3)C(=O)OCC(C)(C)C2)C1, the IC50 under setting [1] was determined as 7.67 nM; the IC50 under setting [2] came out at 9.28 nM; the IC50 under setting [3] turned out to be 7.52 nM; the IC50 under setting [4] was 6.69 nM; the IC50 under setting [5] is less than 3.16 nM; the IC50 under setting [6] is less than 3.16 nM. Besides, the viability, T/C reads like this: (second compound 0.000949 µM, first compound 0.00316 µM) 79.2%; (second compound 0.000949 µM, first compound 0.01 µM) 40.2%; under setting [7], 36.9%; under setting [8], 32%; under setting [9], 32%; under setting [10], 30%. The viability, T/C (second compound 0.003 µM, first compound 0.00316 µM) is 76.2%; the viability, T/C (second compound 0.003 µM, first compound 0.01 µM) was 48.3%; the viability, T/C under setting [11] was 38.9%; the viability, T/C under setting [12] is 29.8%; the viability, T/C under setting [13] was 38.9%; the viability, T/C under setting [14] was 31.3%. Moreover, the viability, T/C is, setting by setting: (second compound 0.00949 µM, first compound 0.00316 µM) 70.7%; (second compound 0.00949 µM, first compound 0.01 µM) 43.2%; under setting [15], 38%; under setting [16], 36.9%; under setting [17], 43.9%; under setting [18], 30.9%. Further, the viability, T/C by setting is: (second compound 0.03 µM, first compound 0.00316 µM) 66%; (second compound 0.03 µM, first compound 0.01 µM) 41.4%; under setting [19], 34%; under setting [20], 30%; under setting [21], 34.7%; under setting [22], 28.9%. The viability, T/C is 49.3% (second compound 0.0949 µM, first compound 0.00316 µM); 33.2% (second compound 0.0949 µM, first compound 0.01 µM); 26.7% under setting [23]; 30% under setting [24]; 27.8% under setting [25]; 22.2% under setting [26]. The viability, T/C is 31.7% (second compound 0.3 µM, first compound 0.00316 µM); 22.4% (second compound 0.3 µM, first compound 0.01 µM); 27.9% under setting [27]; 27.2% under setting [28]; 31.4% under setting [29]; 19.4% under setting [30].

Turning to `Nc1ccn(C2OC(CO)C(O)C2(F)F)c(=O)n1` (stereo unspecified), the viability, T/C (compound 0.00316 µM) is 73.4% [middle of 4 runs]; the viability, T/C (compound 0.0316 µM) was 38.3% [middle of 4 runs]; the viability, T/C (compound 0.1 µM) is 37.3% [middle of 4 runs]; the viability, T/C (compound 0.316 µM) was 37.3% [middle of 4 runs]; the viability, T/C (compound 1 µM) was 32.1% [middle of 4 runs].

With `C=CC(=O)Nc1cc(Nc2nccc(-c3cn(C)c4ccccc34)n2)c(OC)cc1N(C)CCN(C)C`, the viability, T/C reads like this: (compound 0.00316 µM) 90.6% [middle of 4 runs]; (compound 0.01 µM) 50.2% [middle of 4 runs]; (compound 0.0316 µM) 21.9% [middle of 4 runs]; (compound 0.1 µM) 16.2% [middle of 4 runs]; (compound 0.316 µM) 17.2% [middle of 4 runs]; (compound 1 µM) 12.8% [middle of 4 runs]. Under “curve of compound”, the IC50 is 10.1 nM [middle of 4 runs].
